Where a name gives a salt, the structure may show the parent alone. Read-outs that look alike come from different tables or passages of the source.
Experiments:
[1] = system: fibrin-induced microglia activation; assay: Image-based assay of fibrin-induced microglia activation (HTS and dose response); assay type: cell-based, rat; conditions: for IC50 / inhibition at 10 µM: Rattus norvegicus, Microglia; for inhibition at 10 µM: read-out: Fibrin % inhibition
[2] = in vitro; conditions: rat, Cell Toxicity IC50 (uM) [cFib assay]
[3] = system: LPS-induced microglia activation; assay: Image-based assay of LPS-induced microglia activation (HTS and dose response); assay type: cell-based, rat; conditions: Rattus norvegicus, Microglia; for inhibition at 10 µM: read-out: LPS % inhibition
[4] = system: fibrin- and LPS-induced microglia activation; assay: cells; assay type: cell-based, rat; conditions: for inhibition at 10 µM: Rattus norvegicus; for Activity: Table 7, fib = fibrin, LPS, tox = toxicity
[5] = system: primary rat microglia; conditions: rat
[6] = in vitro; conditions: rat
[7] = system: primary rat microglia; conditions: rat; remark: listed apart in the source
[8] = 48 h, Table 1, dose response 0.001-20 μM, triplicates, primary rat microglia, 48 h, read-out: Fibrin IC50
[9] = Table 3, read-out: Fibrin IC50 (uM) (Suppl. Table 7)
[10] = dose response, fibrin-induced microglia activation, read-out: Fibrin IC50
[11] = fibrin-induced microglia activation, dose response, read-out: Fibrin IC50 (uM) (Suppl. Table 7)
[12] = primary microglia HTS, fibrin stimulation, increased cell size (>800 μm^2) as marker of activation
[13] = 48 h, Table 1, dose response 0.001-20 μM, triplicates, primary rat microglia, 48 h, read-out: LPS IC50
[14] = 48 h, primary microglia HTS, LPS stimulation, increased cell size (>800 μm^2) as marker of activation
[15] = LPS-induced microglia activation, dose response, read-out: LPS IC50 (uM) (Suppl. Table 7)
[16] = Table 3, read-out: LPS IC50 (uM) (Suppl. Table 7)
[17] = dose response, LPS-induced microglia activation, read-out: LPS IC50
[18] = HTS of 1907 compounds, quadrant by fibrin and LPS inhibition
[19] = Microglia, Table 3, read-out: Cherry-picked Hit (Suppl. Table 7)
[20] = Microglia, HTS hit classification, read-out: Hit
[21] = quadrant by fibrin and LPS inhibition in HTS of 1907 compounds
[22] = hit classification in microglia HTS, read-out: Cherry-picked Hit (Suppl. Table 7)
[23] = read-out: Fibrin IC50 (uM) (Suppl. Table 7)
[24] = read-out: LPS IC50 (uM) (Suppl. Table 7)
[25] = Microglia, read-out: Cherry-picked Hit (Suppl. Table 7)
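Wherever Fibrin % cell toxicity is given: share of dead cells sized under 150 µm2 at 10 µM in fibrin-stimulated microglia HTS.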

Row | Compound | IC50 [1, 8] | IC50 [1, 10] | IC50 [1, 11] | inhibition at 10 µM [1, 12] | IC50 [2] | IC50 [3, 13] | inhibition at 10 µM [3, 14] | IC50 [3, 15] | IC50 [3, 17] | Quadrant (FIG. 5b) [4, 18] | inhibition at 10 µM [4, 20] | Quadrant (FIG. 5b) ([4]; Table 1, screen at 10 μM) | Quadrant (FIG. 5b) [4, 21] | LPS % cell toxicity [5] | IC50 [6] | Fibrin % cell toxicity [7] | IC50 ([2]; cFib assay) | inhibition at 10 µM [4, 22] | Quadrant (FIG. 5b) [4] | inhibition at 10 µM [4, 25] | other results
1 | CC(=O)OCC(=O)[C@@]1(O)[C@H](OC(C)=O)C[C@H]2[C@@H]3CCC4=CC(=O)C=C[C@]4(C)[C@@]3(F)[C@@H](O)C[C@@]21C [Triamcinolone diacetate, reference compound] | 0.04 µM | 0.04 µM | 0.04 µM | 110% | > 20 µM | 0.8 µM | 100% | 0.8 µM | 0.8 µM | Q2 | > 50% | Q2 | Q2 | 5% | > 20 µM | 2% | – | – | – | – | Fibrin Selectivity [1]: 17; Fibrin Selectivity (LOG10) [1]: 1.23; IC50 [1, 9]: 0.04 µM; IC50 ([1]; Table 7, read-out: fib_IC50): 0.002 µM; IC50 [3, 16]: 0.8 µM; IC50 ([3]; Table 7, read-out: LPS_IC50): 0.002 µM; inhibition at 10 µM [4, 19]: > 50%; Quadrant (FIG. 5b) ([4]; Table 2, screen at 10 μM): Q2; Quadrant (FIG. 5b) ([4]; Table 3, screen at 10 μM): Q2; Activity [4]: fib/LPS
2 | COc1cc([C@@H]2c3cc4c(cc3[C@@H](O[C@@H]3O[C@@H]5CO[C@@H](c6cccs6)O[C@H]5[C@H](O)[C@H]3O)[C@H]3COC(=O)[C@H]23)OCO4)cc(OC)c1O [Teniposide, reference compound] | 2 µM | 2 µM | 2 µM | 91% | – | 1 µM | 100% | 1 µM | 1 µM | Q2 | > 50% | Q2 | Q2 | 18% | 4 µM | 2% | 20 µM | > 50% | – | – | IC50 ([1]; Table 7, read-out: fib_IC50): 0.821 µM; IC50 ([3]; Table 7, read-out: LPS_IC50): 0.24 µM; Quadrant (FIG. 5b) ([4]; Table 2, screen at 10 μM): Q2; Activity [4]: fib/LPS
3 | C1CCC(C(CC2CCCCN2)C2CCCCC2)CC1 (centres unmarked) [Perhexiline maleate, reference compound] | 8 µM | 8 µM | 8 µM | 99% | – | 3 µM | 123% | 3 µM | 3 µM | Q2 | > 50% | Q2 | Q2 | 69% | 11 µM | 3% | 20 µM | > 50% | – | – | –
4 | CC(CN(C)C)CN1c2ccccc2CCc2ccccc21 (centres unmarked) [Trimipramine maleate, reference compound] | 7 µM | 7 µM | 7 µM | 52% | – | 5 µM | 92% | 5 µM | 5 µM | Q2 | > 50% | Q2 | Q2 | 5% | 12 µM | 1% | > 20 µM | > 50% | – | – | –
5 | CCCSc1ccc2nc(NC(=O)OC)[nH]c2c1 [Albendazole, reference compound] | – | – | – | – | > 20 µM | – | – | – | – | – | – | – | – | 1% | > 20 µM | 1% | – | – | Q3 | > 50% | Fibrin Selectivity [1]: 2; Fibrin Selectivity (LOG10) [1]: 0.22; IC50 ([1]; 48 h, read-out: Fibrin IC50): 4 µM; inhibition at 10 µM [1]: 64%; IC50 ([1]; read-out: Fibrin IC50 (uM)): 4 µM; IC50 [1, 23]: 4 µM; inhibition at 10 µM ([3]; 48 h): 16%; IC50 ([3]; 48 h, read-out: LPS IC50): 6 µM; IC50 ([3]; read-out: LPS IC50 (uM)): 6 µM; IC50 [3, 24]: 6 µM; inhibition at 10 µM ([4]; Microglia, read-out: Hit): > 50%
6 | O=c1[nH]c2ccccc2n1C1CCN(CCCC(c2ccc(F)cc2)c2ccc(F)cc2)CC1 [Pimozide, reference compound] | > 20 µM | > 20 µM | > 20 µM | 70% | – | 18 µM | 45% | 18 µM | 18 µM | Q3 | > 50% | Q3 | Q3 | 0% | > 20 µM | 2% | > 20 µM | > 50% | – | – | –
7 | COC(=O)Nc1nc2ccc(C(=O)c3ccccc3)cc2[nH]1 [Mebendazole, reference compound] | 0.2 µM | 0.2 µM | 0.2 µM | 57% | > 20 µM | 6 µM | 72% | 6 µM | 6 µM | Q2 | > 50% | Q2 | Q2 | 2% | > 20 µM | 1% | – | – | – | – | Fibrin Selectivity [1]: 31; Fibrin Selectivity (LOG10) [1]: 1.49; IC50 [1, 9]: 0.2 µM; IC50 [3, 16]: 6 µM; inhibition at 10 µM [4, 19]: > 50%; Quadrant (FIG. 5b) ([4]; Table 3, screen at 10 μM): Q2
8 | Clc1ccc(COC(Cn2ccnc2)c2ccc(Cl)cc2Cl)c(Cl)c1 (centres unmarked) [Miconazole nitrate, reference compound] | – | – | – | – | > 20 µM | – | – | – | – | – | – | – | – | 0% | > 20 µM | 1% | – | – | Q3 | > 50% | inhibition at 10 µM [1]: 53%; inhibition at 10 µM ([3]; 48 h): 23%; inhibition at 10 µM ([4]; Microglia, read-out: Hit): > 50%
9 | C#CCN[C@@H]1CCc2ccccc21 [Rasagiline, reference compound] | – | – | – | – | > 20 µM | – | – | – | – | – | – | – | – | 1% | > 20 µM | 1% | – | – | Q3 | > 50% | IC50 ([1]; 48 h, read-out: Fibrin IC50): 20 µM; inhibition at 10 µM [1]: 76%; IC50 ([1]; read-out: Fibrin IC50 (uM)): 20 µM; IC50 [1, 23]: 20 µM; inhibition at 10 µM ([3]; 48 h): 28%; IC50 ([3]; 48 h, read-out: LPS IC50): > 20 µM; IC50 ([3]; read-out: LPS IC50 (uM)): > 20 µM; IC50 [3, 24]: > 20 µM; inhibition at 10 µM ([4]; Microglia, read-out: Hit): > 50%
10 | C[C@@H](O)[C@H]1C(=O)N2C(C(=O)O)=C(SCCN=CN)C[C@H]12 [Imipenem, reference compound] | – | – | – | – | > 20 µM | – | – | – | – | – | – | – | – | 0% | > 20 µM | 1% | – | – | Q3 | > 50% | IC50 ([1]; 48 h, read-out: Fibrin IC50): > 20 µM; IC50 ([1]; read-out: Fibrin IC50 (uM)): > 20 µM; IC50 [1, 23]: > 20 µM; IC50 ([3]; 48 h, read-out: LPS IC50): > 20 µM; IC50 ([3]; read-out: LPS IC50 (uM)): > 20 µM; IC50 [3, 24]: > 20 µM; inhibition at 10 µM ([4]; Microglia, read-out: Hit): > 50%
11 | Clc1ccc2c(c1)C(N1CCNCC1)=Nc1ccccc1O2 [Amoxapine, reference compound] | – | – | – | – | > 20 µM | – | – | – | – | – | – | – | – | 1% | > 20 µM | 0% | – | – | Q3 | > 50% | inhibition at 10 µM [1]: 58%; inhibition at 10 µM ([3]; 48 h): 43%; inhibition at 10 µM ([4]; Microglia, read-out: Hit): > 50%
12 | CN1CCN(CCCN2c3ccccc3Sc3ccc(C(F)(F)F)cc32)CC1 [Trifluoperazine dihydrochloride, reference compound] | 12 µM | 12 µM | 12 µM | 69% | – | 6 µM | 26% | 6 µM | 6 µM | Q3 | > 50% | Q3 | Q3 | 0% | 12 µM | 2% | > 20 µM | > 50% | – | – | –
